Measured values as given in patent publication US9120774B2 (University of Kansas, priority 2009, dated 2015).

What was measured:
[1] = test system: Hsp90 client protein Her-2 in Skbr3 breast cancer cells; assay: Degradation of Her-2, Western blot in Skbr3 cells; type: cell-based
Method: After incubation, the cells were harvested, lysed, and equal amounts of the protein lysates loaded into SDS wells. After electrophoresis, the gel was probed with Her-2 and actin (control) antibodies.

[2] = test system: Hsp90, androgen receptor and AKT in LNCaP prostate cancer cells; assay: Western blot of Hsp90 and client proteins (AR, AKT) in LNCaP cells; type: cell-based; conditions: 24 hours
Method: FIG. 3 (top panel) is a western blot analysis of prostate cancer LNCaP cells treated with KU-1/A4. The bottom panel is a western blot analysis of prostate cancer LAPC-4 cells incubated with KU-1/A4. Actin was used as a control in both assays. […] Western blot analysis of the effects of KU-1/A4 on Hsp90 client proteins in prostate cancer LNCaP cells. Cells were treated with varying concentrations of KU-1/A4 for 24 hours and probed for the androgen receptor (“AR”), protein kinase […] (“AKT”), Hsp90, and actin.
The steroid hormone receptors are also dependent upon the Hsp90 protein folding machinery for activation and hormone binding. To determine whether KU-1/A4 had similar effects on the androgen receptor, KU-1/A4 was tested in both a mutated androgen receptor-dependent prostate cancer cell line (LNCaP) and a wild type androgen receptor prostate cancer cell line (LAPC-4). More specifically, the prostate cancer cells were grown in RPMI with 10% fetal calf serum in a standard fashion. Once the cells had reached near confluence, they were treated with vehicle (DMSO) or varying concentrations of KU-1/A4 ranging from 10 nm to 100 μM for 24 hours. Cells were harvested and cell lysates prepared. […] More specifically, Western Blot analysis protein concentrations in serum samples were determined by the Pierce BCA protein assay kit according to the manufacturer's protocol. […]

## CO[C@@H]1[C@@H](O)[C@@H](O)[C@H](Oc2ccc3cc(NC(C)=O)c(=O)oc3c2)OC1(C)C [KU-1/A4, N-(7-((2R,3R,4S,5R)-3,4-dihydroxy-5-methoxy-6,6-dimethyl-tetrahydro-2H-pyran-2-yloxy)-2-oxo-2H-chromen-3-yl)acetamide]
[1]; 24 hours, normalized against actin
  IC50 (concentration producing 50% degradation of Her-2): low micromolar range
[1]; tested at 100 nM, 1 μM and 10 μM
  concentrations between which a rapid decrease in Her-2 was observed: between 100 nM and 1 μM
[2]
  concentration at which degradation of client proteins AR and AKT occurs: 1 µM
  lowest concentration inducing Hsp90: 10 nM
